Reference: ChEMBL document CHEMBL1201862, “PubChem BioAssay data set” (2004)
Each block holds one molecule with its values, some of them ahead of it. The source made the active and inactive calls.

What was measured:
[1] = Counterscreen for IDE inhibitors: Luminescence-based cell-based high throughput dose response assay to identify compounds that are cytotoxic to HEK cells. [Related pubchem assays: 434962 (Primary screen (IDE inhibitors in singlicate)), 449730 (Counterscreen (Cytotoxicity in triplicate)), 435028 (Confirmation (IDE inhibitors in triplicate)) …; assay type: functional; settings: HEK293
Insulin-degrading enzyme = biological target: T1, Insulin-degrading enzyme (Homo sapiens, UniProt P14735); test: Dose Response: Fluorescence polarization-based cell-based high throughput dose response assay for inhibitors of insulin-degrading enzyme (IDE). [Related pubchem assays: 434962 (Primary screen (IDE inhibitors in singlicate)), 449730 (Counterscreen (Cytotoxicity in triplicate)), 435028 (Confirmation (IDE inhibitors in triplicate)), 434984 (Summary …; assay type: functional
T1 sequence (P14735 whole entry): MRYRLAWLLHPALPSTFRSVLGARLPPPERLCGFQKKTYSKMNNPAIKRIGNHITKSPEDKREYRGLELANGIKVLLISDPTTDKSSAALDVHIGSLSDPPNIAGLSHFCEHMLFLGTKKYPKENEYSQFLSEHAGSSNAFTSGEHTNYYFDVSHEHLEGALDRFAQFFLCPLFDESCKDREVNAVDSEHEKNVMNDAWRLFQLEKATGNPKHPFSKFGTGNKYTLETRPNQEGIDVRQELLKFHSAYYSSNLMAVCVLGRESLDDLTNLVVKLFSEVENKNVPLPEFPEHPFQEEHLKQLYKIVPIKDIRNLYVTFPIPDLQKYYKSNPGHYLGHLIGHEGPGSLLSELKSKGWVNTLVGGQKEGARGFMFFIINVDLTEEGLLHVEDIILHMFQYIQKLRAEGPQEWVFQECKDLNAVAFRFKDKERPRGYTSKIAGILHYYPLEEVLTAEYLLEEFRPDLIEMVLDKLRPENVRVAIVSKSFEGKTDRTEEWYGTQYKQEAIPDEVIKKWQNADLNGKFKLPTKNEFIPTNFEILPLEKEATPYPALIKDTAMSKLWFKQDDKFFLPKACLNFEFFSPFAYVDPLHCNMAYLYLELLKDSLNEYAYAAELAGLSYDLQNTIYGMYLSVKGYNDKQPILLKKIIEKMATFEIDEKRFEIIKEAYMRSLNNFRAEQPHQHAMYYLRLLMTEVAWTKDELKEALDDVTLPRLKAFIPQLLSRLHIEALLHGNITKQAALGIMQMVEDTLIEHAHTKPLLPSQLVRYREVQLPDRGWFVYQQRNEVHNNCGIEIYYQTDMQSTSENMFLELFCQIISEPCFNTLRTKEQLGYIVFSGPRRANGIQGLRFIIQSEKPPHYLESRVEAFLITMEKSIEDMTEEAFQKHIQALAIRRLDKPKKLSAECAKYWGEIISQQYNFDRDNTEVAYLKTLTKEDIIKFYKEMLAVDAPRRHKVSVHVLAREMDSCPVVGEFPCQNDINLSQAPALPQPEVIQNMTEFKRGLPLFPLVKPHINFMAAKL

Tumor necrosis factor = Tumor necrosis factor (Homo sapiens, UniProt P01375); test: analog potency on TNFa NF-kB signaling – cell-based, revised, SAR follow-up (AID 2337); assay type: functional
Chain of Tumor necrosis factor (P01375 whole entry, the tested form may be a part): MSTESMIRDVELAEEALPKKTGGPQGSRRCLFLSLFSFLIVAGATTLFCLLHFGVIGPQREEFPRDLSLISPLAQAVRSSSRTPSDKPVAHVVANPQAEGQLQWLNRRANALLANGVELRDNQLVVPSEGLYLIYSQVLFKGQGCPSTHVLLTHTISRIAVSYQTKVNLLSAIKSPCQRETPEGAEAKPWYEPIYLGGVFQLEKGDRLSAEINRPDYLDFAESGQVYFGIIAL

[2] = biological target: Nucleotide-binding oligomerization domain-containing protein 1 (Homo sapiens, UniProt Q9Y239); test: blockers of NOD1 pathway activity – revised, SAR follow-up (AID 2333); assay type: functional
Chain of Nucleotide-binding oligomerization domain-containing protein 1 (Q9Y239 whole entry, the tested form may be a part): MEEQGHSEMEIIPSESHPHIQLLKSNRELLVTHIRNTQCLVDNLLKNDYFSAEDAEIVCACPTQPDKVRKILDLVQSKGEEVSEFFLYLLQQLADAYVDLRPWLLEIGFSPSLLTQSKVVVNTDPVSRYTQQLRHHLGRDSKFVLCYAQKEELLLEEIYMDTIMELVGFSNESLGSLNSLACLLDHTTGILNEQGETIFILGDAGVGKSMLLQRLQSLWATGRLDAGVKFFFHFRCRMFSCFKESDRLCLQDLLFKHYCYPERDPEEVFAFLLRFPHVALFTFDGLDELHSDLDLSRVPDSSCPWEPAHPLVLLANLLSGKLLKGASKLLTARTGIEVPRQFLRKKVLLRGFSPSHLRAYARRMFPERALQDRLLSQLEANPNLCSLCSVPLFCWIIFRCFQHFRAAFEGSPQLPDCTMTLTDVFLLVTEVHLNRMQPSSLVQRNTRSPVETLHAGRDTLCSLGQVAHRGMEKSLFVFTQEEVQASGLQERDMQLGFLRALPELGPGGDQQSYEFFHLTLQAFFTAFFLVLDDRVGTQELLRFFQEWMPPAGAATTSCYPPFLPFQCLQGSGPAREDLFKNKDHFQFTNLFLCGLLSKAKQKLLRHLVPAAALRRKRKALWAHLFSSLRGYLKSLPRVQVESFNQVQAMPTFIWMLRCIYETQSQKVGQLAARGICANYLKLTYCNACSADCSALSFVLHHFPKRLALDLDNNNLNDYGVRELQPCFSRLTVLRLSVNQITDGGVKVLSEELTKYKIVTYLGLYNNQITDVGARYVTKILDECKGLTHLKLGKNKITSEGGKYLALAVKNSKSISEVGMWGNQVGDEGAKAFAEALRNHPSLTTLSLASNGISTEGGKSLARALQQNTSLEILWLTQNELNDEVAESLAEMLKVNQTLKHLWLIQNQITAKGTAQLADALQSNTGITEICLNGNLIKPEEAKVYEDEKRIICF

[3] = biological target: Nucleotide-binding oligomerization domain-containing protein 2 (Homo sapiens, UniProt Q9HC29); test: PubChem AID 2334; assay type: functional
Chain of Nucleotide-binding oligomerization domain-containing protein 2 (Q9HC29 whole entry, the tested form may be a part): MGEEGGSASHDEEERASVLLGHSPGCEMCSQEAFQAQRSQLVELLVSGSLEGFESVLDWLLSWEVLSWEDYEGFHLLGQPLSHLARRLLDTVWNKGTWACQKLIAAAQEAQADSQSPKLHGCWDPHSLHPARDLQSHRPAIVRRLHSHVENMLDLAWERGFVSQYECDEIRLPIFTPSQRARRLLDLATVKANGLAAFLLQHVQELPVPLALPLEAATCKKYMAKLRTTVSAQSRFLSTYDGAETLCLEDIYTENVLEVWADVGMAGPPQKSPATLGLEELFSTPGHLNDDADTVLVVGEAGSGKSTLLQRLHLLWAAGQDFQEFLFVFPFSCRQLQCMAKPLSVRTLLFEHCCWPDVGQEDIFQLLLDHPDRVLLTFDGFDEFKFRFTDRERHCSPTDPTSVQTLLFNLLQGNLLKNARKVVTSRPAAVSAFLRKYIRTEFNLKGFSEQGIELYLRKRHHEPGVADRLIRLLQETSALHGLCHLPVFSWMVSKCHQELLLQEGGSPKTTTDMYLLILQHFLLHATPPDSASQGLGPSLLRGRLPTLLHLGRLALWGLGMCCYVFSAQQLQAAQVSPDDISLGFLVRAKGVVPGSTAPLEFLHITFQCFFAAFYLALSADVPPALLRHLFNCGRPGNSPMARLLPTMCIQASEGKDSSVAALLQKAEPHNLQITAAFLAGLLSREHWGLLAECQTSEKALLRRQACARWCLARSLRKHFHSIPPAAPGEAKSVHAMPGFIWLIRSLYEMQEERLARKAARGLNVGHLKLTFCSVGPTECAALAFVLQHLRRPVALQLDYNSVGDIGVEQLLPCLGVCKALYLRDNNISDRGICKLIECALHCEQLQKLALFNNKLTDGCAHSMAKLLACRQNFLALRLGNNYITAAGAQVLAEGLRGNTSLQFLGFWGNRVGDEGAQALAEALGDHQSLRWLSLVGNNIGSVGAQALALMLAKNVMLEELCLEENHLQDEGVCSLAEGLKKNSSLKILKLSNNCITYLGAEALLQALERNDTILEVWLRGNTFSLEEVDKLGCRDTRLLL

HEK293 = test: cells; settings: Homo sapiens;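 note: cells exposed to compound for 14 hours overnight before viability readout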
Protein Rev = Protein Rev (Human immunodeficiency virus type 1 group M subtype B (isolate WMJ22)(HIV-1), UniProt P05866); test: inhibitors of Rev protein–RRE RNA complex – biochemical, protein-RNA interaction, dose response (AID 842); design: species or system Human immunodeficiency virus 1
Chain of Protein Rev (P05866 whole entry): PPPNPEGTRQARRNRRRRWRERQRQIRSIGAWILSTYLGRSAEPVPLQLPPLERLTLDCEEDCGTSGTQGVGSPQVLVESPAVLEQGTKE

Vero = test: mammalian cell viability reduction – secondary assay, cytotoxicity control for West Nile virus antiviral project, dose response (AID 1650); assay type: functional; settings: Chlorocebus sabaeus
[4] = biological target: T2, Short transient receptor potential channel 4 (Mus musculus, UniProt Q9QUQ5); test: block of DAMGO-driven TRPC4 calcium entry – cell-based, HEK293 TRPC4/mu-opioid, Fluo-4 calcium, dose response (AID 434942); assay type: functional;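 note: potency of inhibitors blocking the TRPC4 calcium response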
T2 sequence (Q9QUQ5 whole entry): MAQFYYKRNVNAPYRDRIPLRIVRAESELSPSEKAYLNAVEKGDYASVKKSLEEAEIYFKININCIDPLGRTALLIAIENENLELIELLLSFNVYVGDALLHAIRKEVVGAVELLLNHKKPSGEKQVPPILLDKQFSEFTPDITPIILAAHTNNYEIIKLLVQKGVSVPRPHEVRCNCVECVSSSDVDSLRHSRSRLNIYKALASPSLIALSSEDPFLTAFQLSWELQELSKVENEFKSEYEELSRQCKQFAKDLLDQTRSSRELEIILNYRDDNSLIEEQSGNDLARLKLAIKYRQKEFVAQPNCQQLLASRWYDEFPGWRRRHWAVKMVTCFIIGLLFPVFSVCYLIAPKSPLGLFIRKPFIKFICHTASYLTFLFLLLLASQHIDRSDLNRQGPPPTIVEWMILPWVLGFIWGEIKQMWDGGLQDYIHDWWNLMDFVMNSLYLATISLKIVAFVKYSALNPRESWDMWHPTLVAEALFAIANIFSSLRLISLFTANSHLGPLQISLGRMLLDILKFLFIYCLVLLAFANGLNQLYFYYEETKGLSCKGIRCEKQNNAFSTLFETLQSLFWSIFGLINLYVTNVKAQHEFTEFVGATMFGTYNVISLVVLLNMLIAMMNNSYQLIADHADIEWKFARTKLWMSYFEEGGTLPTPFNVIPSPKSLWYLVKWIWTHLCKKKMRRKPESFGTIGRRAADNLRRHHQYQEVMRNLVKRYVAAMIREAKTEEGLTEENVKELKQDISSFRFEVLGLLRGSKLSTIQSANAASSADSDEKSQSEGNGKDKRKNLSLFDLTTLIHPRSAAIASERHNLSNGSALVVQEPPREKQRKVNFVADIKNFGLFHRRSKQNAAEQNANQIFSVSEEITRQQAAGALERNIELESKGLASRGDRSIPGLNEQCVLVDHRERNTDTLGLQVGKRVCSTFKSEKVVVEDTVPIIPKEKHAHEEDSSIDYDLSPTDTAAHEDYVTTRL

[5] = biological target: T3, DNA repair and recombination protein RAD54-like (Homo sapiens, UniProt Q92698); test: RAD54 Holliday junction migration blockers – biochemical, fluorescence, cherry-picked samples, dose series, confirmation (AID 651657); assay type: functional
T3 sequence (Q92698 whole entry): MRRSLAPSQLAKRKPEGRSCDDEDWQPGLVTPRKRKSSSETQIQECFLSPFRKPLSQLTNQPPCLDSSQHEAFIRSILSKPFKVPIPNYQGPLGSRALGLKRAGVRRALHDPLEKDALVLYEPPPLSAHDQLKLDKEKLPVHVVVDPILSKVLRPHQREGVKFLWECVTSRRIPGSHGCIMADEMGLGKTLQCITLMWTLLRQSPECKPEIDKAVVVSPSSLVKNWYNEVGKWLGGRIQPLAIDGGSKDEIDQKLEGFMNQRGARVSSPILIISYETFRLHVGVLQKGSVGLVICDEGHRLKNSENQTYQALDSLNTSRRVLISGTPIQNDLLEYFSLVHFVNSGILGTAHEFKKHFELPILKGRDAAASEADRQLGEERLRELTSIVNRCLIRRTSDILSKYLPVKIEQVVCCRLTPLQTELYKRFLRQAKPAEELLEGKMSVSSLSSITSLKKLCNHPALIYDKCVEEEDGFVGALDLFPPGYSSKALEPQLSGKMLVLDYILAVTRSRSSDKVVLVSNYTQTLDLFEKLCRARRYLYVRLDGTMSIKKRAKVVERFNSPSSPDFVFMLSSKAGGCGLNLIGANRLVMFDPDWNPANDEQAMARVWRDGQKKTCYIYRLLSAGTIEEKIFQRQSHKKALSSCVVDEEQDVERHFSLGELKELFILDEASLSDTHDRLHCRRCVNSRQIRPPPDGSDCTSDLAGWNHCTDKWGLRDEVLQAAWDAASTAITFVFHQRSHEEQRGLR

[6] = biological target: T4, DNA repair protein RAD52 homolog (Homo sapiens, UniProt P43351); assay type: functional, biochemical
T4 sequence (P43351 whole entry): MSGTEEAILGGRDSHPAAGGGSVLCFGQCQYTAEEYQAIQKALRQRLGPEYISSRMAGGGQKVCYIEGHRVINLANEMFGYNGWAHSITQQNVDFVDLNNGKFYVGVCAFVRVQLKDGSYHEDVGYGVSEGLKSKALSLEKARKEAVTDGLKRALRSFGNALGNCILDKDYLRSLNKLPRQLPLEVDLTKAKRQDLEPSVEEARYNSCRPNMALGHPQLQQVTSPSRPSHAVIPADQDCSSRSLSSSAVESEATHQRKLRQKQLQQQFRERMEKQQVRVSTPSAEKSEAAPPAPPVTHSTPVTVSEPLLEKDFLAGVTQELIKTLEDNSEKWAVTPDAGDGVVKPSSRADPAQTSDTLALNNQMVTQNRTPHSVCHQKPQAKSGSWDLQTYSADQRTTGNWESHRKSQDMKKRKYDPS

[7] = biological target: T5, Eukaryotic translation initiation factor 2-alpha kinase 3 (Homo sapiens, UniProt Q9NZJ5); test: Dose response cell-based high-throughput screening assay to measure PERK inhibition. [Related pubchem assays: 1416 ]; assay type: functional
T5 sequence (Q9NZJ5 whole entry): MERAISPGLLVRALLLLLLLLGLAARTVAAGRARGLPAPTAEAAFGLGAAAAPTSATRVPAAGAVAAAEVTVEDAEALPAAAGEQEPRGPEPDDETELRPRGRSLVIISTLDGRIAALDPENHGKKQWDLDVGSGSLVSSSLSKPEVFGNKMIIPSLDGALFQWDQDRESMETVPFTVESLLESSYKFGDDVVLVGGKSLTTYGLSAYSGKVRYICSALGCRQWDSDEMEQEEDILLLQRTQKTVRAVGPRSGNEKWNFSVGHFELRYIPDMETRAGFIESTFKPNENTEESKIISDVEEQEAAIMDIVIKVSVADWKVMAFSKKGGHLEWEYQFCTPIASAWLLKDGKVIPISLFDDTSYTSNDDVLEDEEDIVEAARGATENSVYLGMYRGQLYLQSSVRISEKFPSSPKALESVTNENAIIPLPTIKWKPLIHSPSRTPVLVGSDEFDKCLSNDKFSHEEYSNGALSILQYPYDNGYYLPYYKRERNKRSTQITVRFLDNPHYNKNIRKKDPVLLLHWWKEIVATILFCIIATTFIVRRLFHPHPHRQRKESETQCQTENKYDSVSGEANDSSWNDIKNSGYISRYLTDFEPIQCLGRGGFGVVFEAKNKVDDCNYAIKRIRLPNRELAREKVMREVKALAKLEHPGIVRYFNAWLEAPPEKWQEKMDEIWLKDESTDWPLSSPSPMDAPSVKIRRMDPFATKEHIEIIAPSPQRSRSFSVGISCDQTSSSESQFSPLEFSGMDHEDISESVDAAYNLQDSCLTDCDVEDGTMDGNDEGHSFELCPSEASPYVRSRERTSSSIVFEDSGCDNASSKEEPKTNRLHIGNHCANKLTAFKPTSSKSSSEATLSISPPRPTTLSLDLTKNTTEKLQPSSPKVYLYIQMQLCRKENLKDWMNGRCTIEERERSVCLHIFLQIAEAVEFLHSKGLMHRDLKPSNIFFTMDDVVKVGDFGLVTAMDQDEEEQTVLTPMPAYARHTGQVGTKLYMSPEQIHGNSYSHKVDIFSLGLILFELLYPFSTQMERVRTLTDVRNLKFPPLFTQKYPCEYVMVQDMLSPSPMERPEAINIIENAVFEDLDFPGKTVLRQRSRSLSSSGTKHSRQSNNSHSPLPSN

[8] = biological target: T5, Eukaryotic translation initiation factor 2-alpha kinase 3; test: Counterscreen assay for PERK inhibitors: Dose response cell-based high throughput screening assay to measure inhibition of PERK at 6 hours. [Related pubchem assays: 1522, 1416 ]; assay type: functional
[9] = biological target: Melanin-concentrating hormone receptor 1 (Homo sapiens, UniProt Q99705); test: Fluorescence-based counterscreen for antagonists of the G-protein coupled receptor 7 (GPR7): cell-based high throughput dose response assay to identify antagonists of the melanin-concentrating hormone receptor 1 (MCHR1).; assay type: functional
Chain of Melanin-concentrating hormone receptor 1 (Q99705 whole entry): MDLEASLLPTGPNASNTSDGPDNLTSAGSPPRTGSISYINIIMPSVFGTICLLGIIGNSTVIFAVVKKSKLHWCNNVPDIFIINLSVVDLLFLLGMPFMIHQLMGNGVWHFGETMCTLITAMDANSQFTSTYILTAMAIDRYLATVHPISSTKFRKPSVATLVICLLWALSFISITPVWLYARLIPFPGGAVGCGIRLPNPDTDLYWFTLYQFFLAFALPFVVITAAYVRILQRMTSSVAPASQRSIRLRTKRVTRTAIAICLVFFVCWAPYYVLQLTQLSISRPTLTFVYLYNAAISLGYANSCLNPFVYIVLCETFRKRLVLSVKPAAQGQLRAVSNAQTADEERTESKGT

Structure (SMILES): COc1cccc(NC(=O)COC(=O)/C=C/c2c(C)nn(-c3ccccc3)c2C)c1
IC50 [1]: > 55.7 µM (not active)
IC50 (Insulin-degrading enzyme): 8.29 µM (active)

Structure (SMILES): CCOC(=O)c1c(NC(=O)CN2CCOCC2)sc2c1CC(C)(C)OC2
IC50 (Tumor necrosis factor): > 20 µM (inactive)
IC50 [2]: > 20 µM (inactive)
IC50 [3]: > 20 µM (inactive)
IC50 (HEK293): > 20 µM (inactive)

Structure (SMILES): CCc1ccc2nc3nc(C)cc(C)c3c(N)c2c1
IC50 (Protein Rev): 58.8 µM (not active)
CC50 (Vero): 21.6 µM (active)
EC50 [4]: 3.35 µM (active)
AC50 [5]: 9.59 µM (active)
AC50 [6]: 3.58 µM (active)

EC50 [7]: > 55.7 µM (not active)
EC50 [8]: > 55.7 µM (not active)
Structure (SMILES): Cn1c(=O)c2c(SCc3ccccc3)nc(-c3ccco3)nc2n(C)c1=O

IC50 [9]: 11.2 µM (not active)
Structure (SMILES): CCN(CC)CCNC(=O)CCc1c(C)nc2c(c(C)nn2-c2ccc(C)cc2)c1C
